Patent US20260344670A1, “BIXLOZONE MIXTURES WITH PETHOXAMID” (FMC CORPORATION, priority 2022, published 2026)

How the values were obtained:
Format in all cases: in vivo
Solanum nigrum (SOLNI) = experiment: pre-emergence control of SOLNI in corn (efficacy, Colby synergy)
Excerpt: (§1) [formula] • where ppm=milligrams of active ingredient (=a.i.) per liter of spray mixture X=% action by component A using p ppm of active ingredient Y=% action by component B using q ppm of active ingredient. If the ratio R defined as the action actually observed (O) divided by the expected action (E) is >1 then the action of the combination is superadditive, i.e. there is a synergistic effect. For a more detailed description of the Colby formula, see Colby, S. R. “Calculating Synergistic and Antagonistic Responses of Herbicide Combination”, Weeds, Vol. 15, pages 20-22; 1967; see also Limpel et al., Proc. NEWCC 16:48-53 (1962).
(§2) As used herein, rating timings correspond to the following: A1=weed assessment at BBCH 11-12; A2=4 weeks after the application; A3=when ZEAMX crop reaches BBCH 18 (row closure); and A4=BBCH 51-59 of the ZEAMX crop.
(§3) The herbicidal compounds bixlozone and pethoxamid were applied in a variety of forms and at a variety of amounts, application rates, and normalities. Efficacy of the herbicidal compositions was evaluated with reference to a scale of 0% to 100% in comparison with untreated control plots. 0 means no damage to the harmful plants and 100 means complete destruction of the harmful plants. Plants per square meter is indicated by “pl/m^2”, and grams per hectare is indicated by “g/ha”. The acronym “EC” means emulsifiable concentrate (a liquid, homogenous formulation to be applied as an emulsion after dilution with water); “SC” means suspension concentrate (a stable suspension of active ingredient(s) with water as the fluid); “ZC” refers to a mixed formulation of CS and SC (a stable suspension of capsules and active ingredient(s) in a fluid, normally intended for dilution with water before use).
Various forms, compositions, and mixtures of bixlozone and pethoxamid were applied to corn before emergence. […] There was equivalent efficacy for fixed rate of bixlozone combined with pethoxamid: 1200 or 900 g/ha. Efficacy was reduced when bixlozone rate decreased from 250 to 150 g/ha. […]

[1] = system: Sorghum halepense (SORHA); experiment: pre-emergence control of SORHA in corn (efficacy, Colby synergy)
Excerpt: as §1, §2
(§4) The herbicidal compounds bixlozone and pethoxamid were applied in a variety of forms and at a variety of amounts, application rates, and normalities. Efficacy of the herbicidal compositions was evaluated with reference to a scale of 0% to 100% in comparison with untreated control plots. 0 means no damage to the harmful plants and 100 means complete destruction of the harmful plants. Plants per square meter is indicated by “pl/m^2”, and grams per hectare is indicated by “g/ha”. […]

Stellaria media (STEME) = experiment: pre-emergence control of STEME in corn (efficacy, Colby synergy); conditions: bixlozone 375, pethoxamid 800, tank mix 375 + 800, premix 375 + 775 g/ha
Excerpt: as §1, §2, §4

[2] = system: Xanthium strumarium (XANST); experiment: pre-emergence control of XANST in corn (efficacy, Colby synergy); conditions: bixlozone 375, pethoxamid 300, mixtures 375 + 300 g/ha
Excerpt: as §1, §2, §4

[3] = system: Acalypha virginica (ACCVI); experiment: pre-emergence control of ACCVI in corn (Colby synergy)
Excerpt: as §1, §4

[4] = system: Lolium multiflorum (LOLMU); experiment: pre-emergence control of LOLMU in corn (Colby synergy); conditions: bixlozone 375, pethoxamid 1200, mixtures 375 + 1200 g/ha
Excerpt: as §1, §4

[5] = system: Tripleurospermum inodorum (MATIN); experiment: pre-emergence control of MATIN in corn (Colby synergy)
Excerpt: as §1, §4

[6] = system: Panicum dichotomiflorum (PANDI); experiment: pre-emergence control of PANDI in corn (Colby synergy)
Excerpt: as §1, §3
(§5) Various forms, compositions, and mixtures of bixlozone and pethoxamid were applied to corn before emergence. […] Mixtures of bixlozone with 1200 g/ha pethoxamid improved weed spectrum on a range of broad leaf weeds (e.g., CHEAL, MATSS, and POLSS) and grasses (e.g., ECHCG, DIGSA, and SETVI). Combinations of bixlozone and pethoxamid in pre-emergence applications were very safe with no clear pethoxamid rate effect.

[7] = system: Polygonum aviculare (POLAV); experiment: pre-emergence control of POLAV in corn (Colby synergy); conditions: bixlozone 375, pethoxamid 1200, mixtures 375 + 1200 g/ha
Excerpt: as §1, §4

[8] = system: Portulaca oleracea (POROL); experiment: pre-emergence control of POROL in corn (Colby synergy)
Excerpt: as §1, §3, §5

[9] = system: Potentilla tridentate (PTLTR); experiment: pre-emergence control of PTLTR in corn (Colby synergy); conditions: bixlozone 375, pethoxamid 1200, mixtures 375 + 1200 g/ha
Excerpt: as §1, §4

AMBEL = experiment: pre-emergence control of AMBEL in corn (efficacy); conditions: bixlozone 375, pethoxamid 1200, mixtures 375 + 1200 g/ha
Excerpt: as §5
(§6) Table 8. Efficacies of various forms and mixtures of bixlozone and pethoxamid after pre-emergence application on corn. Weeds were present at ≥5 pl/m^2. Concentrations are shown in parentheses in g/ha.

CAGSE = experiment: pre-emergence control of CAGSE in corn (efficacy, Colby synergy)
Excerpt: as §5, §6
(§7) Table 11. Synergy data of various forms and mixtures of bixlozone and pethoxamid after pre-emergence application on corn at the crop row closure stage (BBCH 18). The notations in parentheses show the forms and amounts (in g/ha) of applied bixlozone and pethoxamid, respectively. Where “tank” is noted, the mix is a tank mix. Where “premix” is noted, the mix is a premix. Where there is no notation, the value shown is the Colby calculation for the expected value from separate mixtures.
(§8) Various forms, compositions, and mixtures of bixlozone and pethoxamid were applied to corn before emergence. […] Mixtures of bixlozone with 300 g/ha pethoxamid improved weed spectrum on a range of broad leaf weeds (e.g., SOLNI and ABUTH). […]

ANGAR = experiment: pre-emergence control of ANGAR in corn (efficacy, Colby synergy); conditions: bixlozone 375, pethoxamid 800, tank mix 375 + 800, premix 375 + 775 g/ha
Excerpt: (§9) Table 10. Synergy data of various forms and mixtures of bixlozone and pethoxamid after pre-emergence application on corn at the crop row closure stage (BBCH 18). […] The notations in parentheses show the forms and amounts (in g/ha) of applied bixlozone and pethoxamid, respectively. Where “tank” is noted, the mix is a tank mix. Where “premix” is noted, the mix is a premix. Where there is no notation, the value shown is the Colby calculation for the expected value from separate mixtures.
as §5, with “800” for “1200”, “CHEAL” for “CHEAL, MATSS,”, “ABUTH)” for “POLSS)”
(§10) Table 12. Efficacies of various forms and mixtures of bixlozone and pethoxamid after pre-emergence application on corn. Weeds were present at ≥5 pl/m^2. Concentrations are shown in parentheses in g/ha.

CHEPO = experiment: pre-emergence control of CHEPO in corn (efficacy, Colby synergy); conditions: bixlozone 375, pethoxamid 800, tank mix 375 + 800, premix 375 + 775 g/ha
Excerpt: as §9
as §5, with “800” for “1200”, “CHEAL” for “CHEAL, MATSS,”, “ABUTH)” for “POLSS)”
as §10

FUMOF = experiment: pre-emergence control of FUMOF in corn (efficacy, Colby synergy); conditions: bixlozone 375, pethoxamid 800, tank mix 375 + 800, premix 375 + 775 g/ha
Excerpt: as §9
as §5, with “800” for “1200”, “CHEAL” for “CHEAL, MATSS,”, “ABUTH)” for “POLSS)”
as §10

GALAP = experiment: pre-emergence control of GALAP in corn (efficacy, Colby synergy)
Excerpt: as §9
as §5, with “800” for “1200”, “CHEAL” for “CHEAL, MATSS,”, “ABUTH)” for “POLSS)”
as §10
Various forms, compositions, and mixtures of bixlozone and pethoxamid were applied to corn before emergence. […]

DAUCA = experiment: pre-emergence control of DAUCA in corn (efficacy, Colby synergy); conditions: bixlozone 375, pethoxamid 300, mixtures 375 + 300 g/ha
Excerpt: as §7
as §5, with “300” for “1200”, “SOLNI” for “CHEAL, MATSS,”, “ABUTH).” for “POLSS) and grasses (e.g., ECHCG, DIGSA, and SETVI).”
(§11) Table 13. Efficacies of various forms and mixtures of bixlozone and pethoxamid after pre-emergence application on corn. Weeds were present at ≥5 pl/m^2. Concentrations are shown in parentheses in g/ha.

POAAN = experiment: pre-emergence control of POAAN in corn (efficacy, Colby synergy); conditions: bixlozone 375, pethoxamid 300, mixtures 375 + 300 g/ha
Excerpt: as §7
as §5, with “300” for “1200”, “SOLNI” for “CHEAL, MATSS,”, “ABUTH).” for “POLSS) and grasses (e.g., ECHCG, DIGSA, and SETVI).”
as §11
Various forms, compositions, and mixtures of bixlozone and pethoxamid were applied to corn before emergence. […] There was equivalent efficacy for fixed rate of bixlozone combined with pethoxamid: 1200 or 900 g/ha. Efficacy was reduced when bixlozone rate decreased from 250 to 150 g/ha.
Table 14. […]

VERPE = experiment: pre-emergence control of VERPE in corn (efficacy, Colby synergy)
Excerpt: as §7
as §5, with “800” for “1200”, “CHEAL” for “CHEAL, MATSS,”, “ABUTH)” for “POLSS)”
as §10, §8

POLHY = experiment: pre-emergence control of POLHY in corn (efficacy); conditions: bixlozone 375, pethoxamid 800, tank mix 375 + 800, premix 375 + 775 g/ha
Excerpt: as §5, with “800” for “1200”, “CHEAL” for “CHEAL, MATSS,”, “ABUTH)” for “POLSS)”
as §10

[10] = bixlozone 375, pethoxamid 300, mixtures 375 + 300 g/ha
[11] = bixlozone 375, pethoxamid 800, tank mix 375 + 800, premix 375 + 775 g/ha
[12] = bixlozone 375, pethoxamid 1200, mixtures 375 + 1200 g/ha

CCOCCN(C(=O)CCl)C(=C(C)C)c1ccccc1 [pethoxamid]
Efficacy (Solanum nigrum (SOLNI); [10]): 28.8 | Efficacy (Solanum nigrum (SOLNI); [11]): 52.5 | Efficacy (Solanum nigrum (SOLNI); [12]): 76.5 | Efficacy [1, 11]: 80 | Efficacy [1, 12]: 27.5 | Efficacy (Stellaria media (STEME)): 91 | Efficacy [2]: 35 | Efficacy [3, 10]: 65 | Efficacy [3, 12]: 46.3 | Efficacy [4]: 78.8 | Efficacy [5, 10]: 50 | Efficacy [5, 12]: 100 | Efficacy [6, 10]: 68.8 | Efficacy [6, 11]: 71.3 | Efficacy [6, 12]: 84.8 | Efficacy [7]: 77.5 | Efficacy [8, 10]: 48.8 | Efficacy [8, 11]: 98.8 | Efficacy [8, 12]: 94.6 | Efficacy [9]: 0 | Efficacy (AMBEL): 7.5 | Efficacy (CAGSE; [10]): 10 | Efficacy (CAGSE; [12]): 0 | Efficacy (ANGAR): 100 | Efficacy (CHEPO): 30 | Efficacy (FUMOF): 12.5 | Efficacy (GALAP; [10]): 7.5 | Efficacy (GALAP; [11]): 7.5 | Efficacy (DAUCA): 83 | Efficacy (POAAN): 7.5 | Efficacy (VERPE; [10]): 46.3 | Efficacy (VERPE; [11]): 54.4 | Efficacy (POLHY): 92.5
